Results on 20 compounds are retold here after paper PMC7504818, “Synthetic Analogues of Aminoadamantane as Influenza Viral Inhibitors—In Vitro, In Silico and QSAR Studies” (Molecules, 2020).

One data set can be described thus: in vitro. The note with it: dog.
Data set [1] has as its system influenza virus A/H3N2, strain Hong Kong 68. The data set can be described thus: Antiviral activity against influenza virus A/H3N2, strain Hong Kong 68 (crystal violet uptake assay in MDCK cells). Format: cell-based. The note with it: for Active: experimental class, active if IC50 < 30 μM. As for the experimental part:
The synthesized compounds were tested for antiviral activity against the influenza virus A/H3N2, strain Hong Kong 68.
In order to identify new potential antiviral drugs, small amounts of extracts or compounds have to be examined for cytotoxicity and antiviral activity in primary screening using a rapid, easy, inexpensive and highly standardized test system. The cytotoxic and the antiviral effects were quantified using a crystal violet uptake assay allowing automated handling of large numbers of candidate agents. […] Madin-Darby Kanine Kidney Cells (MDCK) cells were seeded at 2 × 10^4 cells per well in 96-well flat-bottomed microtiter plates (Falcon 3075). The cytotoxicity of the test compounds was determined on 2-day-old confluent MDCK cell monolayers grown in the internal 60 wells (5% CO2, 37 °C). After removal of the growth medium, two-fold dilutions of the compounds in 100 µL test medium were added and incubated at 37 °C in a 5% CO2 atmosphere for 72 h. Cells in six wells without compound treatment served as basic controls. The Dynex Immuno Assay System (DIAS, Guernsey, UK) developed for automated ELISA techniques was applied to wash gently, stain, measure and analyze the viability of the cell monolayers in cytotoxic, as well as antiviral assays. The staining procedure undertaken with crystal violet was based on the principles described by Nain et al. for the determination of the cytotoxic activity of TNF-α [20]. At first, the supernatant was aspirated and the cell monolayers were washed three times with […] physiological sodium chloride solution to remove dead cells. Secondly, the cells were fixed and stained in one step with 50 µL of 0.03% crystal violet (w/v) in 20% methanol for 10 min. […] Then the optical density of individual wells was quantified spectrophotometrically at 540/630 nm and analyzed with the DIAS. Cell viability was evaluated as the percentage of the mean value of optical density, resulting from the six cell controls, which was set 100%. The 50% cytotoxic concentrations (CC50) were calculated from the mean dose–response curves of three assays each with two parallels.
To exclude non-specific antiviral activities of test compounds, their cytotoxic effects have to be determined not only on confluent cell monolayers but also on proliferating cell cultures in the primary antiviral screening. The cytotoxicity and the growth inhibition of compounds were quantified using an automated crystal violet staining procedure and the electronic cell analyzer system CASY 1, respectively, on day 3 after compound application. The 50% cytotoxic and growth inhibition concentrations were calculated from the mean dose–response curve (3.9 through 1000 µg mL^−1; dilution factor 2) of three separate experiments each with two parallels in the indicated cell lines.

The subject of a further data set is MDCK cells. Particulars: for HNTC (μM) MDCK Cells: high-nontoxic concentration; for CC50: read-out: CC50 (μM) MDCK Cells, 50% cytotoxic concentration, confluent MDCK monolayers, 72 h.
[2] abbreviates: Influenza A virus, H3N2, MDCK, read-out: IC50 (μM) Against A/Hong Kong/68.
Setting [3] is: MDCK, Table 4, against A/Hong Kong/68, QSAR numbering, read-out: IC50.
The mark [4] stands for this setting: influenza A/H3N2 Hong Kong/68, read-out: IC50 (μM) Against A/Hong Kong/68.
Where [5] appears, read: Table 4, against A/Hong Kong/68, QSAR numbering, read-out: IC50.

Read-outs that look alike come from different tables or passages of the source. Some results are limits rather than exact numbers.

`NC12CC3CC(CC(C3)C1)C2` [Amantadine, reference compound] gave a CC50 in “in vitro” of over 100 µM. In addition, the IC50 in data set [1] (setting [2]) and in data set [1] (setting [3]) was 0.39 µM each time. The Active entry in data set [1] is recorded as “Yes (Active compound only if IC50 < 30 μM)”.
The compound `CC(N)C(=O)NC(C)C12CC3CC(CC(C3)C1)C2` (stereo not shown) [Compound 4a, Ala-Rimantadine] returned a CC50 in the data set “in vitro” of over 100 µM. The “HNTC (μM) MDCK Cells” value in the data set with MDCK cells was determined as 14.65 µM. For the same compound, the IC50 in data set [1] (setting [2]) turned out to be 1.53 µM.
Turning to `CCC(C)C(N)C(=O)NC(C)C12CC3CC(CC(C3)C1)C2` (stereo not shown) [Compound 4c, Ile-Rim], the CC50 in the data set “in vitro” came out at 58.4 µM. In the data set on MDCK cells, the “HNTC (μM) MDCK Cells” value worked out at 5.33 µM.
Consider `CC(C)CC(N)C(=O)NC(C)C12CC3CC(CC(C3)C1)C2` (stereo not shown) [Compound 4d, Leu-Rim], for which the CC50 in the data set “in vitro” is over 100 µM. Further, the “HNTC (μM) MDCK Cells” value in the data set with MDCK cells turned out to be 11.66 µM. Further, the IC50 in data set [1] (setting [2]) was 0.75 µM.
Turning to `CC(NC(=O)C(N)Cc1ccccc1)C12CC3CC(CC(C3)C1)C2` (stereo not shown) [Compound 4e, Phe-Rim], the CC50 in “in vitro” is 21.9 µM. Further, the “HNTC (μM) MDCK Cells” value in the data set on MDCK cells was 4.75 µM.
Turning to `CC(NC(=O)[C@H](N)Cc1ccc(F)cc1)C12CC3CC(CC(C3)C1)C2` (stereo partly drawn) [Compound 4f, (4-F)-D-Phe-Rim], the CC50 in “in vitro” amounted to 19.9 µM. For the same compound, in the data set with MDCK cells, the “HNTC (μM) MDCK Cells” value was 6.23 µM.
In the same order, the values of `CC(NC(=O)C(N)Cc1ccc(F)cc1)C12CC3CC(CC(C3)C1)C2` (stereo not shown) [Compound 4g, (4-F)-Phe-Rim] are 15.5 µM and 4.37 µM.
In the case of `CC(C)C(N)C(=O)NC(C)C12CC3CC(CC(C3)C1)C2` (stereo not shown) [Compound 4h, Val-Rim], in the data set “in vitro”, the CC50 is 70.3 µM. The “HNTC (μM) MDCK Cells” value with MDCK cells came to 10.2 µM.
Turning to `CC(NC(=O)CCN)C12CC3CC(CC(C3)C1)C2` (stereo not drawn) [Compound 4i, β-Ala-Rimantadine], the CC50 in the data set “in vitro” was over 100 µM. In addition, the “HNTC (μM) MDCK Cells” value in the data set on MDCK cells is 20.78 µM. The IC50 in data set [1] (setting [2]) is 15.7 µM.
For the compound `CC(NC(=O)C(N)Cc1ccc(O)cc1)C12CC3CC(CC(C3)C1)C2` (stereo not shown) [Compound 4j, Tyr-Rimantadine], in the data set “in vitro”, the CC50 is over 100 µM. Further, the “HNTC (μM) MDCK Cells” value in the data set with MDCK cells was 9.97 µM. Moreover, the IC50 in data set [1] (setting [2]) is 0.52 µM.
Compound `CC(N)C(=O)NC12CC3CC(CC(C3)C1)C2` (stereo not shown) [Compound 5a, Ala-Amantadine] had a CC50 in “in vitro” of over 100 µM. The “HNTC (μM) MDCK Cells” value with MDCK cells is over 100 µM. The IC50 in data set [1] (setting [2]) and in data set [1] (setting [3]) was 1.41 µM each time. Further, the Active entry in data set [1] is on record as “Yes (Active compound only if IC50 < 30 μM)”.
As for `NC(Cc1ccccc1)C(=O)NC12CC3CC(CC(C3)C1)C2` (stereo not shown) [Compound 5e, phenylalanyl-amantadine], the CC50 in “in vitro” is 89.4 µM. Also, the “HNTC (μM) MDCK Cells” value in the data set with MDCK cells amounted to 15.1 µM. The IC50 in data set [1] (setting [2]) and in data set [1] (setting [3]) was 0.75 µM in each case. For the same compound, the Active entry in data set [1] is recorded as “Yes (Active compound only if IC50 < 30 μM)”.
The compound `NC(Cc1ccc(F)cc1)C(=O)NC12CC3CC(CC(C3)C1)C2` (stereo not shown) [Compound 5g, (4-F)-phenylalanyl-amantadine] yielded a CC50 in “in vitro” of 83.6 µM. For the same compound, the “HNTC (μM) MDCK Cells” value in the data set on MDCK cells was found to be 15.35 µM. For the same compound, the IC50 in data set [1] (setting [2]) and in data set [1] (setting [3]) was 0.81 µM in each case. The Active entry in data set [1] is given as “Yes (Active compound only if IC50 < 30 μM)”.
`CC(C)C(N)C(=O)NC12CC3CC(CC(C3)C1)C2` (stereo not shown) [Compound 5h, Val-Amantadine] yielded a CC50 in the data set “in vitro” of over 100 µM. In the data set with MDCK cells, the “HNTC (μM) MDCK Cells” value was over 100 µM. Also, the IC50 in data set [1] (setting [2]) and in data set [1] (setting [3]) was 1.32 µM in each case. Further, the Active entry in data set [1] is reported as “Yes (Active compound only if IC50 < 30 μM)”.
On to `CC(NC(=O)[C@H](C)NC(=N)N)C12CC3CC(CC(C3)C1)C2` (stereo partly drawn) [Compound 6a, Gua-Ala-Rim], for which, in the data set on MDCK cells, the “HNTC (μM) MDCK Cells” value was over 100 µM and the CC50 is over 100 µM. The IC50 in data set [1] (setting [4]) was found to be 41.9 µM.
As to `CC(NC(=O)CCNC(=N)N)C12CC3CC(CC(C3)C1)C2` (stereo not drawn) [Compound 6i, Gua-β-Ala-Rim], in the data set with MDCK cells, the “HNTC (μM) MDCK Cells” value was over 100 µM and the CC50 was over 100 µM.
On to `CC(NC(=O)[C@H](Cc1ccc(O)cc1)NC(=N)N)C12CC3CC(CC(C3)C1)C2` (stereo partly drawn) [Compound 6j, Gua-Tyr-Rim], for which, in the data set on MDCK cells, the “HNTC (μM) MDCK Cells” value is 36.69 µM and the CC50 is over 100 µM. Further, in data set [1] (setting [4]), the IC50 was determined as 8.19 µM.
For `C[C@H](NC(=N)N)C(=O)NC12CC3CC(CC(C3)C1)C2` [Compound 7a, Gua-Ala-Am], the “HNTC (μM) MDCK Cells” value with MDCK cells is over 100 µM. The CC50 with MDCK cells was over 100 µM. In addition, the IC50 in data set [1] (setting [5]) and in data set [1] (setting [4]) was 18.4 µM in each case. Further, in data set [1], the Active entry is “Yes (Active compound only if IC50 < 30 μM)”.
On to `CC(C)[C@H](NC(=N)N)C(=O)NC12CC3CC(CC(C3)C1)C2` [Compound 7h, Gua-Val-Am], for which the “HNTC (μM) MDCK Cells” value with MDCK cells was over 100 µM. The CC50 with MDCK cells is over 100 µM. For the same compound, the IC50 in data set [1] (setting [5]) and in data set [1] (setting [4]) was 17.1 µM each time. Besides, the Active entry in data set [1] is given as “Yes (Active compound only if IC50 < 30 μM)”.
`CCOC(=O)C1=C[C@@H](OC(CC)CC)[C@H](NC(C)=O)[C@@H](N)C1` [Oseltamivir, reference compound] returned a CC50 in the data set “in vitro” of over 100 µM. Moreover, the “HNTC (μM) MDCK Cells” value in the data set on MDCK cells is over 100 µM. Moreover, the IC50 in data set [1] (setting [2]) came to 0.002 µM.
